Assay results as given in ChEMBL document CHEMBL1201862, “PubChem BioAssay data set” (2004).
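All cell lines were grown in 96-well plates and treated with compound for 48 hours. Here, GI50 denotes the concentration required for 50% inhibition of growth.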 Active and inactive are the calls of the source. Rule as the data show it: active = GI50 up to about 1.1 µM and inactive = higher.

Columns and labels:
Test in all cases: growth of human tumour cells (NCI), 48 h
[1] = test system: COLO 205
[2] = test system: M14
[3] = test system: LOX IMVI
[4] = test system: DLD-1
[5] = test system: EKVX
[6] = test system: OVCAR-3
[7] = test system: UACC-62
[8] = test system: SN12C
[9] = test system: RXF 631
[10] = test system: SNB-78
[11] = test system: MOLT-4
[12] = test system: RPMI-8226
[13] = test system: HOP-92
[14] = test system: CAKI-1
[15] = test system: ACHN
[16] = test system: NCI-H226
[17] = test system: SNB-75
[18] = test system: SK-MEL-28
[19] = test system: HT-29
[20] = test system: HL-60
[21] = test system: U-251
[22] = test system: SK-MEL-5
[23] = test system: OVCAR-4
[24] = test system: SK-MEL-2
[25] = test system: CCRF-CEM
[26] = test system: SK-OV-3
[27] = test system: 786-0
[28] = test system: HOP-18
[29] = test system: XF498
[30] = test system: A498
[31] = test system: HCT-116
[32] = test system: A549
[33] = test system: HCT-15
[34] = test system: NCI-H522
[35] = test system: OVCAR-8
[36] = test system: KM12
[37] = test system: DMS-273
[38] = test system: UACC-257
[39] = test system: Malme-3M
[40] = test system: RXF 393
[41] = test system: IGROV-1
[42] = test system: SNB-19
[43] = test system: LXFL 529
[44] = test system: DMS-114
[45] = test system: HOP-62
[46] = test system: OVCAR-5
[47] = test system: KM-20L2
[48] = test system: UO-31
[49] = test system: TK-10
[50] = test system: SR
[51] = test system: SF-295
[52] = test system: SW-620
[53] = test system: M19-MEL
[54] = test system: SF-268
[55] = test system: NCI-H460
[56] = test system: K562
[57] = test system: SF-539
[58] = test system: NCI-H23

Compound: NCc1cc(O)c(O)c(O)c1
- GI50 [1]: > 100 µM (inactive)
- GI50 [2]: > 100 µM (inactive)
- GI50 [3]: 34.8 µM (inactive)
- GI50 [4]: > 100 µM (inactive)
- GI50 [5]: > 100 µM (inactive)
- GI50 [6]: > 100 µM (inactive)
- GI50 [7]: 59.3 µM (inactive)
- GI50 [8]: > 100 µM (inactive)
- GI50 [9]: > 100 µM (inactive)
- GI50 [10]: > 100 µM (inactive)
- GI50 [11]: > 100 µM (inactive)
- GI50 [12]: 33.7 µM (inactive)
- GI50 [13]: > 100 µM (inactive)
- GI50 [14]: > 100 µM (inactive)
- GI50 [15]: > 100 µM (inactive)
- GI50 [16]: > 100 µM (inactive)
- GI50 [17]: > 100 µM (inactive)
- GI50 [18]: > 100 µM (inactive)
- GI50 [19]: > 100 µM (inactive)
- GI50 [20]: 80.7 µM (inactive)
- GI50 [21]: > 100 µM (inactive)
- GI50 [22]: > 100 µM (inactive)
- GI50 [23]: > 100 µM (inactive)
- GI50 [24]: > 100 µM (inactive)
- GI50 [25]: 38.5 µM (inactive)
- GI50 [26]: > 100 µM (inactive)
- GI50 [27]: > 100 µM (inactive)
- GI50 [28]: > 100 µM (inactive)
- GI50 [29]: > 100 µM (inactive)
- GI50 [30]: > 100 µM (inactive)
- GI50 [31]: 63.5 µM (inactive)
- GI50 [32]: > 100 µM (inactive)
- GI50 [33]: > 100 µM
- GI50 [34]: > 100 µM (inactive)
- GI50 [35]: > 100 µM (inactive)
- GI50 [36]: > 100 µM (inactive)
- GI50 [37]: > 100 µM (inactive)
- GI50 [38]: > 100 µM (inactive)
- GI50 [39]: > 100 µM (inactive)
- GI50 [40]: > 100 µM (inactive)
- GI50 [41]: > 100 µM (inactive)
- GI50 [42]: > 100 µM (inactive)
- GI50 [43]: > 100 µM (inactive)
- GI50 [44]: > 100 µM (inactive)
- GI50 [45]: > 100 µM (inactive)
- GI50 [46]: > 100 µM (inactive)
- GI50 [47]: > 100 µM (inactive)
- GI50 [48]: > 100 µM (inactive)
- GI50 [49]: > 100 µM (inactive)
- GI50 [50]: 91.2 µM (inactive)
- GI50 [51]: > 100 µM (inactive)
- GI50 [52]: > 100 µM (inactive)
- GI50 [53]: 80.4 µM (inactive)
- GI50 [54]: > 100 µM (inactive)
- GI50 [55]: > 100 µM (inactive)
- GI50 [56]: 43.1 µM (inactive)

Compound: CCN(CC)c1ccc(/N=C2\C=C(Cl)C(=O)c3ncccc32)c(C)c1
- GI50 [1]: 4.2 µM (inactive)
- GI50 [2]: 2.9 µM (inactive)
- GI50 [3]: 5.15 µM (inactive)
- GI50 [4]: 4.06 µM (inactive)
- GI50 [5]: 11.2 µM (inactive)
- GI50 [6]: 1.91 µM (inactive)
- GI50 [7]: 3.8 µM (inactive)
- GI50 [8]: 7.41 µM (inactive)
- GI50 [9]: 13.5 µM (inactive)
- GI50 [57]: 12.4 µM (inactive)
- GI50 [10]: 13.1 µM (inactive)
- GI50 [11]: 2.88 µM (inactive)
- GI50 [12]: 3.37 µM (inactive)
- GI50 [13]: 2.15 µM (inactive)
- GI50 [14]: 3.33 µM (inactive)
- GI50 [15]: 2.96 µM (inactive)
- GI50 [17]: 14.4 µM (inactive)
- GI50 [18]: 8.2 µM (inactive)
- GI50 [19]: 15.8 µM (inactive)
- GI50 [20]: 1.86 µM (inactive)
- GI50 [21]: 4.88 µM (inactive)
- GI50 [22]: 3.18 µM (inactive)
- GI50 [23]: 5.27 µM (inactive)
- GI50 [24]: 7.74 µM (inactive)
- GI50 [25]: 1.68 µM (inactive)
- GI50 [26]: 31.3 µM (inactive)
- GI50 [27]: 3.08 µM (inactive)
- GI50 [28]: 3.08 µM (inactive)
- GI50 [29]: 5.78 µM (inactive)
- GI50 [31]: 3.24 µM (inactive)
- GI50 [32]: 9.71 µM (inactive)
- GI50 [33]: 3.85 µM
- GI50 [35]: 4.08 µM (inactive)
- GI50 [37]: 3.73 µM (inactive)
- GI50 [38]: 2.48 µM (inactive)
- GI50 [39]: 2.88 µM (inactive)
- GI50 [40]: 3.92 µM (inactive)
- GI50 [41]: 11.1 µM (inactive)
- GI50 [42]: 21.3 µM (inactive)
- GI50 [44]: 2.67 µM (inactive)
- GI50 [45]: 5.37 µM (inactive)
- GI50 [47]: 5.65 µM (inactive)
- GI50 [48]: 12.4 µM (inactive)
- GI50 [58]: 3.24 µM (inactive)
- GI50 [49]: 4.37 µM (inactive)
- GI50 [51]: 15.6 µM (inactive)
- GI50 [52]: 4.05 µM (inactive)
- GI50 [53]: 4.68 µM (inactive)
- GI50 [55]: 6.56 µM (inactive)
- GI50 [56]: 2.28 µM (inactive)

Compound: CCCCCC/C=C/CCCCCCCc1cccc(O)c1C(=O)O
- GI50 [1]: > 100 µM (inactive)
- GI50 [2]: > 100 µM (inactive)
- GI50 [3]: 70.6 µM (inactive)
- GI50 [4]: 43.6 µM (inactive)
- GI50 [5]: 32.7 µM (inactive)
- GI50 [6]: 42.3 µM (inactive)
- GI50 [7]: 36.4 µM (inactive)
- GI50 [9]: > 100 µM (inactive)
- GI50 [57]: 59.4 µM (inactive)
- GI50 [10]: > 100 µM (inactive)
- GI50 [11]: 48.5 µM (inactive)
- GI50 [12]: 54.2 µM (inactive)
- GI50 [14]: > 100 µM (inactive)
- GI50 [15]: 85.5 µM (inactive)
- GI50 [17]: > 100 µM (inactive)
- GI50 [18]: 83 µM (inactive)
- GI50 [19]: 14.4 µM (inactive)
- GI50 [20]: > 100 µM (inactive)
- GI50 [21]: 27.3 µM (inactive)
- GI50 [23]: > 100 µM (inactive)
- GI50 [24]: > 100 µM (inactive)
- GI50 [25]: 39.5 µM (inactive)
- GI50 [26]: 36.3 µM (inactive)
- GI50 [27]: > 100 µM (inactive)
- GI50 [28]: 48.4 µM (inactive)
- GI50 [29]: > 100 µM (inactive)
- GI50 [31]: > 100 µM (inactive)
- GI50 [32]: 50.4 µM (inactive)
- GI50 [33]: 38.4 µM
- GI50 [34]: 52.8 µM (inactive)
- GI50 [35]: 50.8 µM (inactive)
- GI50 [36]: > 100 µM (inactive)
- GI50 [37]: 34.9 µM (inactive)
- GI50 [38]: 49.4 µM (inactive)
- GI50 [39]: > 100 µM (inactive)
- GI50 [41]: 44.9 µM (inactive)
- GI50 [42]: 34.7 µM (inactive)
- GI50 [43]: 45.4 µM (inactive)
- GI50 [44]: > 100 µM (inactive)
- GI50 [45]: 33.6 µM (inactive)
- GI50 [46]: > 100 µM (inactive)
- GI50 [47]: > 100 µM (inactive)
- GI50 [48]: 86.9 µM (inactive)
- GI50 [58]: 38.5 µM (inactive)
- GI50 [49]: 70.3 µM (inactive)
- GI50 [50]: > 100 µM (inactive)
- GI50 [51]: > 100 µM (inactive)
- GI50 [52]: 62.4 µM (inactive)
- GI50 [53]: > 100 µM (inactive)
- GI50 [54]: 26.9 µM (inactive)
- GI50 [55]: 9.75 µM (inactive)
- GI50 [56]: 37.2 µM (inactive)
